Data: the NIST ThermoML archive (doi:10.1021/je0498560)

Test: xn = mol fraction of the nth substance listed
Settings: Liquid

OCC(F)(F)F [2,2,2-trifluoroethanol] + O=C=O
Settings	molar volume [m3/mol]
298 K, x2 = 0.132	6.39e-05
298 K, x2 = 0.225	6.3e-05
298 K, x2 = 0.358	5.95e-05
298 K, x2 = 0.48	5.81e-05
298 K, x2 = 0.599	5.71e-05
298 K, x2 = 0.704	5.51e-05
298 K, x2 = 0.749	5.51e-05
298 K, x2 = 0.795	5.43e-05
298 K, x2 = 0.842	5.49e-05
298 K, x2 = 0.888	5.48e-05
298 K, x2 = 0.927	5.5e-05
313 K, x2 = 0.16	6.1e-05
313 K, x2 = 0.23	6.13e-05
313 K, x2 = 0.337	6.06e-05
313 K, x2 = 0.424	5.94e-05
313 K, x2 = 0.517	5.84e-05
313 K, x2 = 0.628	5.51e-05
313 K, x2 = 0.715	5.3e-05
313 K, x2 = 0.773	5.34e-05
313 K, x2 = 0.849	5.65e-05
313 K, x2 = 0.901	5.98e-05

CN1CCCC1=O [N-methylpyrrolidone] + O=C=O
313 K
Settings	molar volume [m3/mol]
x2 = 0.104	8.91e-05
x2 = 0.19	8.48e-05
x2 = 0.242	8.26e-05
x2 = 0.311	7.9e-05
x2 = 0.374	7.57e-05
x2 = 0.437	7.32e-05
x2 = 0.499	6.98e-05
x2 = 0.565	6.66e-05
x2 = 0.629	6.23e-05
x2 = 0.725	5.67e-05
x2 = 0.816	5.34e-05

CC(C)=O [acetone] + O=C=O
323 K
Settings	molar volume [m3/mol]
x2 = 0.056	7.37e-05
x2 = 0.14	7.18e-05
x2 = 0.251	6.75e-05
x2 = 0.335	6.67e-05
x2 = 0.432	6.42e-05
x2 = 0.53	6.23e-05
x2 = 0.603	6.1e-05
x2 = 0.648	6.01e-05
x2 = 0.695	5.71e-05
x2 = 0.73	5.66e-05
x2 = 0.76	5.74e-05
x2 = 0.787	5.81e-05

CC#N [acetonitrile] + O=C=O
313 K
Settings	molar volume [m3/mol]
x2 = 0.044	5.19e-05
x2 = 0.073	5.25e-05
x2 = 0.093	5.33e-05
x2 = 0.168	5.24e-05
x2 = 0.241	5.11e-05
x2 = 0.312	5.1e-05
x2 = 0.381	5.18e-05
x2 = 0.449	5.07e-05
x2 = 0.523	4.98e-05
x2 = 0.598	4.96e-05
x2 = 0.688	4.9e-05
x2 = 0.77	4.87e-05
x2 = 0.834	5.08e-05

ClCCl [dichloromethane] + O=C=O
313 K
Settings	molar volume [m3/mol]
x2 = 0.044	6.51e-05
x2 = 0.114	6.32e-05
x2 = 0.188	6.24e-05
x2 = 0.269	6.13e-05
x2 = 0.444	5.87e-05
x2 = 0.533	5.74e-05
x2 = 0.644	5.64e-05
x2 = 0.738	5.32e-05
x2 = 0.83	5.42e-05
x2 = 0.859	5.82e-05

C[N+](=O)[O-] [nitromethane] + O=C=O
Settings	molar volume [m3/mol]
298 K, x2 = 0.12	4.93e-05
298 K, x2 = 0.238	4.83e-05
298 K, x2 = 0.346	4.76e-05
298 K, x2 = 0.457	4.74e-05
298 K, x2 = 0.552	4.74e-05
298 K, x2 = 0.678	4.71e-05
298 K, x2 = 0.747	4.77e-05
298 K, x2 = 0.81	4.78e-05
298 K, x2 = 0.855	4.87e-05
298 K, x2 = 0.876	4.91e-05
313 K, x2 = 0.048	5.88e-05
313 K, x2 = 0.119	5.71e-05
313 K, x2 = 0.183	5.56e-05
313 K, x2 = 0.254	5.51e-05
313 K, x2 = 0.32	5.45e-05
313 K, x2 = 0.385	5.37e-05
313 K, x2 = 0.479	5.32e-05
313 K, x2 = 0.546	5.23e-05
313 K, x2 = 0.627	5.09e-05
313 K, x2 = 0.727	4.99e-05
313 K, x2 = 0.791	5.08e-05

FC(F)(F)C(F)(F)C(F)(F)C(F)(F)C(F)(F)C(F)(F)F [perfluorohexane] + O=C=O
313 K
Settings	molar volume [m3/mol]
x2 = 0.146	0.0001867
x2 = 0.163	0.000187
x2 = 0.262	0.0001742
x2 = 0.27	0.0001732
x2 = 0.339	0.0001655
x2 = 0.424	0.0001511
x2 = 0.474	0.0001448
x2 = 0.547	0.0001324
x2 = 0.615	0.0001235
x2 = 0.665	0.0001165
x2 = 0.721	0.0001062
x2 = 0.765	9.7e-05
x2 = 0.776	9.49e-05
x2 = 0.811	9.03e-05
x2 = 0.836	9.17e-05

CC(C)O [propan-2-ol] + O=C=O
313 K
Settings	molar volume [m3/mol]
x2 = 0.018	7.97e-05
x2 = 0.065	7.88e-05
x2 = 0.133	7.62e-05
x2 = 0.21	7.45e-05
x2 = 0.3	7.17e-05
x2 = 0.401	6.85e-05
x2 = 0.51	6.4e-05
x2 = 0.639	6.06e-05
x2 = 0.725	5.99e-05
x2 = 0.788	6.01e-05

C1CCOC1 [tetrahydrofuran] + O=C=O
Settings	molar volume [m3/mol]
298 K, x2 = 0.132	7.08e-05
298 K, x2 = 0.228	6.55e-05
298 K, x2 = 0.333	6.46e-05
298 K, x2 = 0.451	6.2e-05
298 K, x2 = 0.518	6.08e-05
298 K, x2 = 0.624	5.86e-05
298 K, x2 = 0.736	5.64e-05
298 K, x2 = 0.83	5.49e-05
298 K, x2 = 0.899	5.43e-05
313 K, x2 = 0.098	7.75e-05
313 K, x2 = 0.313	7.09e-05
313 K, x2 = 0.398	6.82e-05
313 K, x2 = 0.489	6.53e-05
313 K, x2 = 0.576	6.29e-05
313 K, x2 = 0.655	6.23e-05
313 K, x2 = 0.733	6.02e-05
313 K, x2 = 0.832	5.72e-05
313 K, x2 = 0.89	6.02e-05
333 K, x2 = 0.165	7.45e-05
333 K, x2 = 0.26	7.34e-05
333 K, x2 = 0.404	6.87e-05
333 K, x2 = 0.539	6.6e-05
333 K, x2 = 0.696	5.84e-05
333 K, x2 = 0.808	6.04e-05
333 K, x2 = 0.85	6.29e-05
333 K, x2 = 0.893	7.05e-05

Cc1ccccc1 [toluene] + O=C=O
323 K
Settings	molar volume [m3/mol]
x2 = 0.091	0.0001014
x2 = 0.175	9.72e-05
x2 = 0.26	9.21e-05
x2 = 0.335	8.76e-05
x2 = 0.408	8.37e-05
x2 = 0.48	8.02e-05
x2 = 0.524	7.82e-05
x2 = 0.583	7.22e-05
x2 = 0.644	6.72e-05
x2 = 0.715	6.46e-05
x2 = 0.764	6.32e-05
x2 = 0.821	6.23e-05
x2 = 0.865	6.26e-05
x2 = 0.883	6.35e-05
